Laboratory results: patent US6482805B2 (Parker Hughes Institute, priority 1998, dated 2002)
Where two headings read alike, the source gives them in different places.

Experiments:
Format in all cases: cell-based
[1] = test system: HIV-1; test: Anti-HIV-1 activity, p24 antigen assay in infected PBMC (Example 1); conditions: for IC50: read-out: IC50, HIV-1 replication (p24 antigen)
Experimental: Subsequently, cells were cultured in 96-well microtiter plates (100 μl/well; 2×10^6/ml, triplicate wells) in the presence and absence of various concentrations (0.00 μM to 100 μM) of drugs for 7 days. Aliquots of culture supernatants were removed from the wells on the 7th day after infection for p24 antigen enzyme immunoassay as an indication of viral replication. Erice et al. Antimicrob. Agents and Chemother. […] Agents and Chemother. […] Percent inhibition of virus replication was calculated by comparing the p24 antigen values from the test drug-treated infected cells with p24 antigen values from untreated infected cells. […] Cell viability was quantified by a colorimetric […] assay. F. M. Uckun et al., Antimicrob. Agents and Chemother.

[2] = test system: human sperm; test: cells
Experimental: All donor specimens were obtained after informed consent and in compliance with the guidelines of the Hughes Institute Institutional Review Board. To evaluate the spermicidal effects of ZDV derivatives, highly motile fraction of pooled donor sperm (n 8) were prepared from liquefied normospermic semen by discontinuous (90-45%) gradient centrifugation using Enhance-S-Plus (Conception technologies, San Diego, Calif.) cell isolation medium as previously described. [D'Cruz O J, et al., Biol Reprod 1999; 60:1419-1428; D'Cruz O J, et al., Biol Reprod 1995; 53:118-1130; and D'Cruz O J, et al., Biol Reprod 1998; 58:1515-1526]. The resulting pellet was washed twice and resuspended in 1-ml of Biggers, Whitten, and Whittingam's medium (BWW) (Irvine Scientific, Santa Ana, Calif.) containing 3% BSA (fraction V; Sigma Chemical Co., St. Louis, Mo.). One-ml aliquots of the sperm suspension were centrifuged (500× g, 5 min) and incubated at 45° for 90 min at 37° C. in 5% CO2 atmosphere. The supernatant containing primarily motile sperm was aspirated carefully, washed once in BWW medium containing 25 mM HEPES and 0.3% BSA and resuspended in the same medium. Pooled motile sperm (=10×10^6/ml) prepared from 3-5 donors were suspended in 1-ml of BWW-0.3% BSA in the presence and absence of serial 2-fold dilutions of test substance (1.9 μm to 500 μM) in 0.5% dimethyl sulfoxide (DMSO). The stock solutions of synthetic compounds were prepared in DMSO (100 mM) and diluted in medium to yield the desired concentrations. A corresponding volume of DMSO (0.5%) was added to control tubes. After 3 hour incubation at 37° C., the percentage of motile sperm was evaluated by computer-assisted sperm motion analysis (CASA) [D'Cruz O J, et al., Biol Reprod 1998; 58:1515-1526; D'Cruz O J, et al., Mol Hum Reprod 1998; 4:683-693; D'Cruz O J, et al., Biol Reprod 1999; 60:435-444]. The percentage motilities were compared with those of sham-treated control suspensions of motile sperm. The spermicidal activity of test compounds was expressed as the mean EC50 values (the final concentration of the compound in the medium that decreases the proportion of motile sperm by 50%) calculated from three independent experiments.
For CASA, 4 μl of each sperm suspension were loaded into a 20-μm Microcell chamber at 37° C. Eight to ten fields per chamber were scanned for analysis using a Hamilton Thome Integrated Visual Optical System (IVOS), version 10 instrument (Hamilton Thome Research Inc., Danvers, Mass.) [see, D'Cruz O J, et al. Biol Reprod 1998; 58:1515-1526; and D'Cruz O J, et al., Mol Hum Reprod 1998; 4:683-693; and D'Cruz O J, et al., Biol Reprod 1999; 60:435-444]. Each field was recorded for 30 sec. The computer calibrations were set at 30 frames at a frame rate of 30/s. Other settings were as follows: minimum contrast 8; minimum size 6; low-size gate, 1.0; high-size gate, 2.9; low-intensity gate, 0.6; high-intensity gate, 1.4; phase-contrast illumination; low path velocity at 10 μm/s, and threshold straightness at 80%; magnification factor, 1.95.
The sperm kinematic parameters that were determined included numbers of motile (MOT) and progressively (PRG) motile sperm; curvilinear velocity (VCL; a measure of the total distance traveled by a given sperm during the acquisition divided by the time elapsed); average path velocity (VAP; the spatially averaged path that eliminates the wobble of the sperm head), straight line velocity (VSL; the straight-line distance from beginning to end of track divided by time taken), beat cross frequency (BCF, frequency of sperm head crossing sperm average path), the amplitude of lateral head displacement (ALH; the mean width of sperm head oscillation), straightness (STR=VSL/VAP×100); linearity (LIN=VSL/VCL×100; departure of sperm track from a straight line). Data from each individual cell track were recorded and analyzed. At least 200 motile sperm were analyzed for each aliquot sampled.

[3] = test system: human sperm; test: Time course of sperm immobilizing activity by CASA (Example 2); conditions: 100 μM
Experimental: At timed intervals, duplicate aliquots (4-μl) were transferred to two 20 μm Microcell chambers and sperm motility was assessed by CASA.

[4] = 3 hour incubation, mean ± SD of three experiments, read-out: EC50 (sperm motility, CASA) (converted)
[5] = Table 4, mean of three experiments, read-out: Sperm EC50

Row | Molecule | EC50 [2, 4] | EC50 [2, 5] | exposure time to complete sperm immobilization [3] | time required for 50% motility loss of progressively motile sperm [3] | further results
1 | CCCCCCCCCc1ccc(OCCOCCOCCOCCOCCOCCOCCOCCOCCO)cc1 [Compound N-9, nonoxynol-9, reference compound] | – | – | – | – | IC50 ([1]; Human immunodeficiency virus 1, PBMC, 168 h, human peripheral blood mononuclear cells, 7 days): 2.19 µM; EC50 ([2]; Homo sapiens, Sperm, Table 4, mean of three experiments, read-out: Sperm EC50): 81 µM
2 | 5-Bromo-6-methoxy-5,6-dihydro-3′-azidothymidine-5′-[(p-Fluorophenyl methoxyalaninyl phosphate] [WHI-06] | 15 µM | 15 µM | – | – | –
3 | 5-Bromo-6-methoxy-5,6-dihydro-3′-azidothymidine 5′-[Phenyl methoxyalaninyl phosphate] [WHI-04] | 35 ± 5 µM | 35 µM | – | – | –
4 | COC(=O)C(C)NP(=O)(OCC1OC(N2C(=O)NC(=O)C(C)(Br)C2OC)CC1N=[N+]=[N-])Oc1ccc(Br)cc1 (centres unmarked) [WHI-07, 5-Bromo-6-methoxy-5,6-dihydro-3′-azidothymidine-5′-(p-Bromophenyl Methoxyalaninyl Phosphate)] | – | – | 30 min | 6 min | IC50 ([1]; Human immunodeficiency virus 1, PBMC, 168 h): 0.005 µM; anti-HIV potency relative to N-9 ([1]; ratio of IC50 values): 439 fold; EC50 ([2]; Homo sapiens, Sperm, 3 h, read-out: EC50 (sperm motility, CASA)): 5 µM; EC50 ([2]; Homo sapiens, Sperm, read-out: Sperm EC50): 5 µM
5 | 5-bromo-6-methoxy-5,6-dihydro-3 ′-azidothymidine-5 ′-(p-methoxyphenyl) methoxyalaninyl phosphate [WHI-05] | 24 µM | 24 µM | 60 min | 17 min | IC50 ([1]; human peripheral blood mononuclear cells, 7 days): 0.05 µM
